# Source: patent publication US20250163104A1, “MACROCYCLIC IMMUNOMODULATORS” (priority 2021, published 2025)
# pIC50: −log10 of the molar value. Where a SMILES comes first, the peptide text is derived from it. Bridges are numbered along the chain shown (N, C = ends). [ ]: non-standard residue; d: D form. The star is where a group is joined. Phe(4-COOH) = N[C@@H](Cc1ccc(C(=O)O)cc1)C(=O)O; Bip = N[C@@H](Cc1ccc(-c2ccccc2)cc1)C(=O)O; 4Pal = N[C@@H](Cc1ccncc1)C(=O)O; Cha = N[C@@H](CC1CCCCC1)C(=O)O; Carboxymethyl = O=C(O)C*; Nle = CCCC[C@H](N)C(=O)O; Orn = NCCC[C@H](N)C(=O)O; Dab = NCC[C@H](N)C(=O)O; Dap = NC[C@H](N)C(=O)O
# Molecular target: T1, human PD-1 / PD-L1-Ig binding on Jurkat cell line over-expressing human PD-1 (Jurkat-PD-1) (Homo sapiens, UniProt Q15116)
# T1 construct: expressed in transfected cells; host or cells: Jurkat
# Experiment: Jurkat-PD-1 Cell Binding High-Content Screening Assay (CBA)
# Format: cell-based
# Details: Jurkat HPD1_PDL1 IC50, Jurkat-PD-1 cells, PE-labeled PD-L1-Ig 20 nM final
# How it was run: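 Cell-bound PE-labeled PD-L1-Ig (20 nM final, 1 h) measured by high-content imaging after fixation and Hoechst 33342 counterstain. Compound was applied first for 2 h at 37° C. to Jurkat cells over-expressing human PD-1 in DMEM with 10% FCS.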
# T1 sequence (Q15116 25-288): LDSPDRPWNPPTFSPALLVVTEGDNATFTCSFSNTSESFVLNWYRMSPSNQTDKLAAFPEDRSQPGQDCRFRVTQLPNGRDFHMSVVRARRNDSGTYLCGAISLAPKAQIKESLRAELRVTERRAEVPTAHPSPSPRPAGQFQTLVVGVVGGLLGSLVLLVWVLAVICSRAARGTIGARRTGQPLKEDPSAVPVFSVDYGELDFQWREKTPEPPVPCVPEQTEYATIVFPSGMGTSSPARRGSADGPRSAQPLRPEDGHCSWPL
row,Compound,pIC50
1,CC(C)C[C@@H]1NC(=O)[C@H](Cc2c[nH]c3ccccc23)NC(=O)[C@H](CC(=O)O)NC(=O)[C@H](Cc2ccc(OCC(=O)O)cc2)NC(=O)[C@H](CN)NC(=O)CSC[C@@H](C(=O)NCC(N)=O)NC(=O)[C@H](CO)NC(=O)[C@H](C(C)C)NC(=O)[C@H](CC2CCCCC2)NC(=O)[C@H](CC(N)=O)NC(=O)[C@@H](CC(C)C)NC(=O)[C@H](CN)NC(=O)[C@H](C(C)C)NC(=O)[C@H](Cc2ccc(-c3ccccc3)cc2)NC1=O [Compound 1394] ({CH2CO}-[Dap]Y(Carboxymethyl)DWL[Bip]V[Dap][dL]N[Cha]VSCG-NH2; thioether N-14),8.12

# Same assay, conditions: Jurkat-PD-1 cells, PE-labeled PD-L1-Ig 20 nM final; read-out: Jurkat HPD1_PDL1 IC50
row,Compound,pIC50
1,CC(C)C[C@H]1NC(=O)[C@H](CCCN)NC(=O)[C@H](CCCN)NC(=O)[C@H](Cc2ccc(-c3ccccc3)cc2)NC(=O)[C@H](C(C)C)NC(=O)[C@H](Cc2c[nH]c3ccccc23)NC(=O)[C@H](CC(=O)O)NC(=O)[C@H](Cc2ccncc2)NC(=O)[C@H](CN)NC(=O)CSC[C@@H](C(=O)N[C@@H](C)C(N)=O)NC(=O)[C@H]([C@@H](C)O)NC(=O)[C@H](C(C)C)NC(=O)[C@H](CC2CCCCC2)NC(=O)[C@H](CCN)NC1=O [Compound 1386] ({CH2CO}-[Dap][4Pal]DWV[Bip][Orn][Orn][dL][Dab][Cha]VTCA-NH2; thioether N-14),7.97
2,CC(C)C[C@H]1NC(=O)[C@H](CCCN)NC(=O)[C@H](CCN)NC(=O)[C@H](Cc2ccc(-c3ccccc3)cc2)NC(=O)[C@H](C(C)C)NC(=O)[C@H](Cc2c[nH]c3ccccc23)NC(=O)[C@H](CC(=O)O)NC(=O)[C@H](Cc2ccncc2)NC(=O)[C@H](CN)NC(=O)CSC[C@@H](C(=O)N[C@@H](C)C(N)=O)NC(=O)[C@H]([C@@H](C)O)NC(=O)[C@H](C(C)C)NC(=O)[C@H](CC2CCCCC2)NC(=O)[C@H](CCN)NC1=O [Compound 1387],7.60
3,CC(C)C[C@H]1NC(=O)[C@H](CCCN)NC(=O)[C@H](CN)NC(=O)[C@H](Cc2ccc(-c3ccccc3)cc2)NC(=O)[C@H](C(C)C)NC(=O)[C@H](Cc2c[nH]c3ccccc23)NC(=O)[C@H](CC(=O)O)NC(=O)[C@H](Cc2ccncc2)NC(=O)[C@H](CN)NC(=O)CSC[C@@H](C(=O)N[C@@H](C)C(N)=O)NC(=O)[C@H]([C@@H](C)O)NC(=O)[C@H](C(C)C)NC(=O)[C@H](CC2CCCCC2)NC(=O)[C@H](CCN)NC1=O [Compound 1388],7.59
4,CC(C)C[C@H]1NC(=O)[C@H](CCCN)NC(=O)[C@H](CCCCN)NC(=O)[C@H](Cc2ccc(-c3ccccc3)cc2)NC(=O)[C@H](C(C)C)NC(=O)[C@H](Cc2c[nH]c3ccccc23)NC(=O)[C@H](CC(=O)O)NC(=O)[C@H](Cc2ccncc2)NC(=O)[C@H](CN)NC(=O)CSC[C@@H](C(=O)N[C@@H](C)C(N)=O)NC(=O)[C@H]([C@@H](C)O)NC(=O)[C@H](C(C)C)NC(=O)[C@H](CC2CCCCC2)NC(=O)[C@H](CCN)NC1=O [Compound 1389] ({CH2CO}-[Dap][4Pal]DWV[Bip]K[Orn][dL][Dab][Cha]VTCA-NH2; thioether N-14),8.07
5,CC(C)C[C@H]1NC(=O)[C@H](CCCN)NC(=O)[C@H](CCCN)NC(=O)[C@H](Cc2ccc(-c3ccccc3)cc2)NC(=O)[C@H](C(C)C)NC(=O)[C@H](Cc2c[nH]c3ccccc23)NC(=O)[C@H](CC(=O)O)NC(=O)[C@H](Cc2ccc(OCC(=O)O)cc2)NC(=O)[C@H](Cc2ccncc2)NC(=O)CSC[C@@H](C(=O)N[C@@H](C)C(N)=O)NC(=O)[C@H]([C@@H](C)O)NC(=O)[C@H](C(C)C)NC(=O)[C@H](CC2CCCCC2)NC(=O)[C@H](CCN)NC1=O [Compound 1390],7.78
6,CC[C@H](C)[C@@H]1NC(=O)[C@H](Cc2ccc(-c3ccccc3)cc2)NC(=O)[C@H](C(C)C)NC(=O)[C@H](Cc2c[nH]c3ccccc23)NC(=O)[C@H](CC(=O)O)NC(=O)[C@H](Cc2ccc(OCC(=O)O)cc2)NC(=O)[C@H](CN)NC(=O)CSC[C@@H](C(=O)N[C@@H](C)C(N)=O)NC(=O)[C@H]([C@@H](C)O)NC(=O)[C@H](C(C)C)NC(=O)[C@H](CC2CCCCC2)NC(=O)[C@H](CCN)NC(=O)[C@@H](CC(C)C)NC(=O)[C@H](CCCN)NC1=O [Compound 1391],8.30
7,CC(C)C[C@@H]1NC(=O)[C@H](Cc2c[nH]c3ccccc23)NC(=O)[C@H](CC(=O)O)NC(=O)[C@H](Cc2ccc(O)cc2)NC(=O)[C@H](Cc2ccccc2)NC(=O)CSC[C@@H](C(=O)NCC(N)=O)NC(=O)[C@H](CO)NC(=O)[C@H](C(C)C)NC(=O)[C@H](CC2CCCCC2)NC(=O)[C@H](CC(N)=O)NC(=O)[C@@H](CC(C)C)NC(=O)[C@H](CN)NC(=O)[C@H](C(C)C)NC(=O)[C@H](Cc2ccc(-c3ccccc3)cc2)NC1=O [Compound 1392] ({CH2CO}-FYDWL[Bip]V[Dap][dL]N[Cha]VSCG-NH2; thioether N-14),7.11
8,CC(C)C[C@@H]1NC(=O)[C@H](Cc2c[nH]c3ccccc23)NC(=O)[C@H](CC(=O)O)NC(=O)[C@H](Cc2ccc(C(=O)O)cc2)NC(=O)[C@H](Cc2ccc(OCC(=O)O)cc2)NC(=O)CSC[C@@H](C(=O)NCC(N)=O)NC(=O)[C@H](CO)NC(=O)[C@H](C(C)C)NC(=O)[C@H](CC2CCCCC2)NC(=O)[C@H](CC(N)=O)NC(=O)[C@@H](CC(C)C)NC(=O)[C@H](CN)NC(=O)[C@H](C(C)C)NC(=O)[C@H](Cc2ccc(-c3ccccc3)cc2)NC1=O [Compound 1393] ({CH2CO}-Y(Carboxymethyl)[Phe(4-COOH)]DWL[Bip]V[Dap][dL]N[Cha]VSCG-NH2; thioether N-14),7.60
9,CC(C)C[C@@H]1NC(=O)[C@H](Cc2c[nH]c3ccccc23)NC(=O)[C@H](CC(=O)O)NC(=O)[C@H](Cc2ccncc2)NC(=O)[C@H](CN)NC(=O)CSC[C@@H](C(=O)NCC(N)=O)NC(=O)[C@H](CO)NC(=O)[C@H](C(C)C)NC(=O)[C@H](CC2CCCCC2)NC(=O)[C@H](CC(N)=O)NC(=O)[C@@H](CC(C)C)NC(=O)[C@H](CN)NC(=O)[C@H](C(C)C)NC(=O)[C@H](Cc2ccc(-c3ccccc3)cc2)NC1=O [Compound 1395] ({CH2CO}-[Dap][4Pal]DWL[Bip]V[Dap][dL]N[Cha]VSCG-NH2; thioether N-14),8.00
10,CC(C)C[C@@H]1NC(=O)[C@H](Cc2c[nH]c3ccccc23)NC(=O)[C@H](CC(=O)O)NC(=O)[C@H](Cc2ccncc2)NC(=O)[C@H](Cc2ccc(OCC(=O)O)cc2)NC(=O)CSC[C@@H](C(=O)NCC(N)=O)NC(=O)[C@H](CO)NC(=O)[C@H](C(C)C)NC(=O)[C@H](CC2CCCCC2)NC(=O)[C@H](CC(N)=O)NC(=O)[C@@H](CC(C)C)NC(=O)[C@H](CN)NC(=O)[C@H](C(C)C)NC(=O)[C@H](Cc2ccc(-c3ccccc3)cc2)NC1=O [Compound 1396] ({CH2CO}-Y(Carboxymethyl)[4Pal]DWL[Bip]V[Dap][dL]N[Cha]VSCG-NH2; thioether N-14),7.67
11,CCCC[C@@H]1NC(=O)[C@H](CC(N)=O)NC(=O)[C@@H](CC(C)C)NC(=O)[C@H](CN)NC(=O)[C@H](C(C)C)NC(=O)[C@H](Cc2ccc(-c3ccccc3)cc2)NC(=O)[C@H](CC(C)C)NC(=O)[C@H](Cc2c[nH]c3ccccc23)NC(=O)[C@H](CC(=O)O)NC(=O)[C@H](Cc2ccc(O)cc2)NC(=O)[C@H](Cc2ccccc2)NC(=O)CSC[C@@H](C(=O)NCC(N)=O)NC(=O)[C@H](CO)NC(=O)[C@H](C(C)C)NC1=O [Compound 1397] ({CH2CO}-FYDWL[Bip]V[Dap][dL]N[Nle]VSCG-NH2; thioether N-14),7.26
12,CCCC[C@@H]1NC(=O)[C@H](CC(N)=O)NC(=O)[C@@H](CC(C)C)NC(=O)[C@H](CN)NC(=O)[C@H](C(C)C)NC(=O)[C@H](Cc2ccc(-c3ccccc3)cc2)NC(=O)[C@H](CC(C)C)NC(=O)[C@H](Cc2c[nH]c3ccccc23)NC(=O)[C@H](CC(=O)O)NC(=O)[C@H](Cc2ccc(C(=O)O)cc2)NC(=O)[C@H](Cc2ccc(OCC(=O)O)cc2)NC(=O)CSC[C@@H](C(=O)NCC(N)=O)NC(=O)[C@H](CO)NC(=O)[C@H](C(C)C)NC1=O [Compound 1398] ({CH2CO}-Y(Carboxymethyl)[Phe(4-COOH)]DWL[Bip]V[Dap][dL]N[Nle]VSCG-NH2; thioether N-14),7.63
13,CCCC[C@@H]1NC(=O)[C@H](CC(N)=O)NC(=O)[C@@H](CC(C)C)NC(=O)[C@H](CN)NC(=O)[C@H](C(C)C)NC(=O)[C@H](Cc2ccc(-c3ccccc3)cc2)NC(=O)[C@H](CC(C)C)NC(=O)[C@H](Cc2c[nH]c3ccccc23)NC(=O)[C@H](CC(=O)O)NC(=O)[C@H](Cc2ccc(OCC(=O)O)cc2)NC(=O)[C@H](CN)NC(=O)CSC[C@@H](C(=O)NCC(N)=O)NC(=O)[C@H](CO)NC(=O)[C@H](C(C)C)NC1=O [Compound 1399] ({CH2CO}-[Dap]Y(Carboxymethyl)DWL[Bip]V[Dap][dL]N[Nle]VSCG-NH2; thioether N-14),7.79
14,CCCC[C@@H]1NC(=O)[C@H](CC(N)=O)NC(=O)[C@@H](CC(C)C)NC(=O)[C@H](CN)NC(=O)[C@H](C(C)C)NC(=O)[C@H](Cc2ccc(-c3ccccc3)cc2)NC(=O)[C@H](CC(C)C)NC(=O)[C@H](Cc2c[nH]c3ccccc23)NC(=O)[C@H](CC(=O)O)NC(=O)[C@H](Cc2ccncc2)NC(=O)[C@H](CN)NC(=O)CSC[C@@H](C(=O)NCC(N)=O)NC(=O)[C@H](CO)NC(=O)[C@H](C(C)C)NC1=O [Compound 1400] ({CH2CO}-[Dap][4Pal]DWL[Bip]V[Dap][dL]N[Nle]VSCG-NH2; thioether N-14),7.54
15,CCCC[C@@H]1NC(=O)[C@H](CC(N)=O)NC(=O)[C@@H](CC(C)C)NC(=O)[C@H](CN)NC(=O)[C@H](C(C)C)NC(=O)[C@H](Cc2ccc(-c3ccccc3)cc2)NC(=O)[C@H](CC(C)C)NC(=O)[C@H](Cc2c[nH]c3ccccc23)NC(=O)[C@H](CC(=O)O)NC(=O)[C@H](Cc2ccncc2)NC(=O)[C@H](Cc2ccc(OCC(=O)O)cc2)NC(=O)CSC[C@@H](C(=O)NCC(N)=O)NC(=O)[C@H](CO)NC(=O)[C@H](C(C)C)NC1=O [Compound 1401] ({CH2CO}-Y(Carboxymethyl)[4Pal]DWL[Bip]V[Dap][dL]N[Nle]VSCG-NH2; thioether N-14),7.66
